Experimental data reported in patent US20190059429A1, “SALT COMPOSITION INCLUDING SERINE” (NESTEC S.A., priority 2016, published 2019).

Experiments:
[1] = Dissolution kinetics in water by online refractometry; assay type: physicochemical; details: 60 mL water, stirred 500 rpm, room temperature, particle size 100-200 μm, refractive index
Procedure: FIG. 1 Dissolution kinetics. The change in refractive index (n) was measured by online-refractometry in water over the time period 0 to 50 seconds. 0.56 g of pure NaCl (triangle); 2.58 g of (L-serine)2.sodium chloride co-crystals (diamond); a physical mixture of 2.02 g L-serine and 0.56 g NaCl (cross); and a 2.02 g of pure L-serine (star) were each added to 60 mL of water stirred (500 rpm) at room temperature. The particle size of the respective solids was standardized in the range 100-200 μm.
The rate of dissolution of a solid in a liquid may be measured by refractometry. A refractometer measures the extent to which light is refracted when it moves from air into a sample, thereby allowing the refractive index (n) of the sample to be measured. […] Accordingly, by monitoring the change in refractive index over time, the kinetic rate of dissolution of a solid can be determined. So that independent measurements of dissolution rate can be compared, the refractive index values may be normalised by expression as a percentage of the maximal value recorded in a particular experiment.
The dissolution behaviour of (L-serine)2.sodium co-crystals obtained by direct crystallisation from a saturated solution (Example 2) were tested by refractometry. In this experiment, test samples were added to 60 mL of water, and the extent of dissolution was measured while stirring at 500 rpm. […]

trained panellists = assay: Sensory evaluation of tablets by 11 trained panellists; assay type: in vivo; details: tablets 123.7 mg
Procedure: Bars coloured black denote a significant difference in a particular taste/sensory characteristic. Unshaded bars denote that there is no significant difference in the characteristic. A positive number represents an increased sensory response of the co-crystal compared to the physical mixture.
Tablets for sensory evaluation were prepared using a Romaco Kilian Styl'One single-stroke tablet press. […] The tablets were prepared with three compressions of 300 ms and an interval of 200 ms.
Each of the panellists received a tray with two tablets presented on plastic plates coded with random 3-digit numbers. The tablets had to be crunched with the front teeth and kept in mouth to dissolve slowly (method 1). Alternatively, tablets could be crunched with the front teeth and chewed constantly in the mouth until complete dissolution occurred (method 2).
Afterwards the panellists were asked to rate the taste of the tablets in respect of the following 12 categories: upfront saltiness (1), overall saltiness (2), sweetness (3), sourness (4), umami (5), friable (6), melting (7), overall persistence (8), saltiness persistence (9), sweetness persistence (10), sourness persistence (11), and tingling (12).

SMILES | time to reach 90% dissolution [1] | salty taste perceived, co-crystal tablets vs L-serine/NaCl physical mix tablets (trained panellists; during and after consumption) | overall saltiness vs physical mix (trained panellists; FIG. 2) | saltiness persistence vs physical mix (trained panellists; FIG. 2) | upfront saltiness vs physical mix (trained panellists; FIG. 2)
N[C@@H](CO)C(=O)O.N[C@@H](CO)C(=O)O.[Cl-].[Na+] [(L-serine)2.sodium chloride co-crystals, (L-serine)2.sodium chloride] | around 25 seconds | significantly more salty | superior | superior | superior
[Cl-].[Na+] [NaCl, Sodium chloride, reference compound] | around 25 seconds |  |  |  | 
